Assay results: BigSolDB 2.1

Cc1cccc(Nc2ccccc2C(=O)O)c1C
solubility (mole fraction)
Settings	in DMAc	in DMF	in acetone	in cyclohexane	in ethanol	in ethyl acetate	in isopropanol	in n-heptane	in n-hexane	in water
298 K	0.122	0.0171	0.0054	0.0009	0.0019	0.0039	0.002	0.0011	0.0013	–
303 K	0.138	0.0208	0.0055	0.0009	0.002	0.0045	0.0024	0.0013	0.0014	–
308 K	0.153	0.0275	0.0065	0.0011	0.0024	0.0055	0.0026	0.0015	0.0016	–
313 K	0.165	0.0327	0.007	0.0012	0.0032	0.0071	0.0033	0.0017	0.0018	1e-05
318 K	0.175	0.0391	0.0084	0.0014	0.0037	0.0079	0.004	0.0018	0.002	3e-05
323 K	0.19	0.0551	0.0098	0.0016	0.0042	0.0096	0.0053	0.0022	0.0024	5e-05
